Key:
[1] = test system: explants of wild-type mouse retina; assay: In vitro model of light-mediated oxidative stress: isoprostane release from retina explants; format: cell-based; conditions: intense light (~10,000 Lux), 2-day incubation
Excerpt: FIG. 6. Development of an in vitro model of light-mediated oxidative stress. An in vitro model of oxidative stress was developed to determine the therapeutic potency of the TAPP compositions. In this model, explants of wild-type mouse retina are placed into culture media and exposed to intense white light over a 2 day period. Control samples were exposed to subdued lighting (˜100 Lux). The formation of oxidized arachadonic acid (isoprostanes), which is a direct measure of oxidative stress in biological samples, was monitored with a commercially available assay kit (Cayman Chemical Company, Ann Arbor, Mich.).
FIG. 7. TAPP1 reduces light-mediated oxidative stress. The aforementioned in vitro assay of light-mediated oxidative stress was employed to determine the therapeutic potency of TAPP1. In this experiment, isoprostane released from retina explants was measured in the absence and presence of TAPP1 in subdued lighting (˜100 Lux) and during intense light exposure (˜10,000 Lux). […]
The compound TAPP1 (C18H24N4O3), MW 344.18, is formulated as described above. […] TAPP content of the supernatant is analyzed by a capillary reverse phase C18 column. […] The relative quantity of the TAPP is determined by area integration of the TAPP elution peak. […] Isoprostanes are measured with a commercially available in vitro assay kit.

SOD1 mutant mice = assay: Oxidative stress biomarkers (LH, MDA, NT immunoreactivity) in eye tissue of SOD1 mutant mice after eye drop treatment; format: in vivo, mouse; conditions: eye drops 40 mM TAPP1 in 45% β-cyclodextrin, one drop per day, 30 treatments over 6 weeks, versus vehicle
Excerpt: FIG. 9. TAPP1 reduces oxidative stress in SOD1 mutant mice. The evolution of oxidative stress and retinal pathology in SOD1 mutant mice, is preceded by the formation of lipid hydroperoxides (LH), and conjugates of malondialdehyde (MDA) and nitrotyrosine (NT). These conjugates are detected in situ using appropriate monoclonal antibodies. To determine the therapeutic efficacy of the TAPP compositions in vivo, we probed fixed sections of eye tissues for these biomarkers following treatment with either TAPP1 (eye drop formulation containing 40 mM TAPP1 in 45% β-cyclodextrin) or the TAPP1 vehicle (β-cyclodextrin alone). Mice (aged 3 months) were treated with one drop per day, 5 treatments per week for 6 weeks, for a total of 30 treatments. In these studies, areas of increased light intensity indicate increased amounts of LH, MDA or NT in the tissue sections.
A mouse which lacks, or is deficient in, the superoxide dismutase 1 (SOD1) enzyme, is used as a model of oxidative stress. Previous investigations have shown that the SOD1-deficient mouse manifests a phenotype which is consistent with age-related macular degeneration (i.e., formation of drusen, thickening of Bruch's membrane and choroidal neovascularization; Imamura, et. al, Proc Natl Acad Sci, 103: 11282-11287, 2006). Following examination of appropriate biomarkers of oxidative stress, the SOD mutant mice are treated with an eye drop formulation containing 40 mM TAPP1 in β-cyclodextrin. The treatment protocol is one drop per day, 5 treatments per week for 6 weeks, for a total of 30 treatments. SOD mutant mice in the control group receive only the TAPP1 vehicle. Following the treatment regime, mice are sacrificed and eyeglobes are enucleated, fixed and prepared for histological examination. The presence of oxidative stress biomarkers (lipid hydroperoxides, LH; malondialdehyde, MDA; and nitrotyrosine, NT) in the tissue sections were evaluated by immunohistochemistry (FIG. 9). […]

CC1(C)CC(OC(=O)c2cc(-c3ccncc3)n[nH]2)CC(C)(C)N1[O] [TAPP1, 1-oxyl-2,2,6,6-tetramethylpiperidin-4-yl 3-(pyridin-4-yl)-1H-pyrazole-5-carboxylate]
significantly reduced: isoprostane release from retina explants [1] | lipid hydroperoxide (LH) immunoreactivity in ocular tissue (SOD1 mutant mice) | malondialdehyde (MDA) immunoreactivity in ocular tissue (SOD1 mutant mice) | nitrotyrosine (NT) immunoreactivity in ocular tissue (SOD1 mutant mice)

Source: US20090253745A1, “MODULATORS OF OCULAR OXIDATIVE STRESS” (SIRION THERAPEUTICS, INC., priority 2007, published 2009)
